This assay is described as follows: blockers of mitochondrial fusion, WT vs mutant – cell-based, chemical genetic, wild-type and mutant, confirmation (AID 1361). The following applies: Cell-based mitochondrial fusion phenotype, imaging.
Setting [1] is: mutant cells, measured here: mutant cell line IC50.

Activity calls are given as the source filed them. No rule for the calls is given here.

What is called IC50 is the midpoint of a concentration-inhibition curve.

For the molecule `CCOC(=O)c1c(C)[nH]c(C(=O)OCC(=O)Nc2cc(Cl)ccc2OC)c1C`, the IC50 is, setting by setting: (WT cells) > 25 µM (inactive); under setting [1], above 25 µM.
On to `CCCNC(=O)c1ccccc1NC(=O)CSCc1ccc(OC)cc1`, for which the IC50 is > 25 µM (inactive) (WT cells) and above 25 µM under setting [1].
For the molecule `Cc1nc(N2CCCCC2C)c2c(C)c(C(=O)Nc3cccc(C(F)(F)F)c3)sc2n1` (configuration not stated), the half-maximal inhibitory concentration (IC50) was 10.6 µM (WT cells) and above 25 µM under setting [1].
For the molecule `CCOC(=O)c1cc2c(ccn2C)n1Cc1cc(C)ccc1C`, the IC50 (WT cells) is 25 µM (inactive) and the IC50 under setting [1] was above 25 µM.
Turning to `O=C(N/N=C/C=C/c1ccccc1)C1CC1c1ccccc1` (configuration not stated), the IC50 runs as follows: (WT cells) > 25 µM (inactive); under setting [1], above 25 µM.
Taken in the same sequence, the figures for `CCOc1ccc(Cc2c(Cl)nc(SC)nc2N(C)C)cc1` were 11.8 µM and above 25 µM.
Turning to `CCN=c1scc(-c2ccco2)n1/N=C/c1ccc(OC)c(O)c1`, the IC50 was > 25 µM (inactive) (WT cells) and above 25 µM under setting [1].
For the molecule `O=C(CC(Nc1ccc(F)cc1)c1ccccc1)c1ccccc1` (configuration not stated), the IC50 by setting is: (WT cells) 16.5 µM; under setting [1], above 25 µM.
In the case of `Cc1ccc(S(=O)(=O)c2nc(Nc3ccccc3)sc2Cl)cc1`, the IC50 was 14.1 µM (WT cells) and above 25 µM under setting [1].
Taken in the same sequence, the figures for `CCOC(=O)C1=C(NC(=S)NC(=O)c2ccccc2)c2ccccc2CC1(C)CC` (configuration not stated) were 7.33 µM and above 25 µM.
As for `CCN(Cc1cc2ccc(C)cc2[nH]c1=O)C(=O)c1ccncc1`, the IC50 reads like this: (WT cells) > 25 µM (inactive); under setting [1], above 25 µM.
Consider `COC(=O)[C@@H]1CC[C@H](C)[C@@H](c2ccc(C)cc2)N1C(=O)c1ccc(/C=N/O[C@@H](C)CN2CCCCc3nc(C)c(C)cc32)cc1`, for which the IC50 by setting is: (WT cells) 6.19 µM; under setting [1], above 25 µM.
Consider `COc1ccc(OC)c(NC(=O)COC(=O)Cc2ccc(Br)cc2)c1`, for which the IC50 reads like this: (WT cells) > 25 µM (inactive); under setting [1], above 25 µM.
In the case of `Cc1ccc(CNC(=O)CCNC(=O)c2ccco2)cc1`, the IC50 is, setting by setting: (WT cells) > 25 µM (inactive); under setting [1], above 25 µM.
Take `C/C(=N\N1CCCCC1c1cccnc1)c1c(O)n(C2CCCCC2)c(=S)[nH]c1=O` (configuration not stated): the IC50 was > 25 µM (inactive) (WT cells) and above 25 µM under setting [1].
In the case of `Cc1ccc(-c2cc(-c3ccccc3)c(C#N)c(N)n2)o1`, the IC50 by setting is: (WT cells) > 25 µM (inactive); under setting [1], above 25 µM.
The corresponding values for `Clc1ccc(C(c2nnnn2C2CCCCC2)N(Cc2cccnc2)Cc2ccco2)cc1` (configuration not stated) are 15.5 µM and above 25 µM.
Consider `Cc1cccc2nc(-c3ccccc3)nc(N3CCC(O)(c4ccc(Cl)cc4)CC3)c12`, for which the IC50 reads like this: (WT cells) 4.04 µM; under setting [1], above 25 µM.
The corresponding values for `O=C(CCn1nc(-c2ccccc2)c2ccccc2c1=O)NCC1CCCO1` (configuration not stated) are > 25 µM (inactive) and above 25 µM.
In the case of `CCN(CC)S(=O)(=O)c1cccc(C(=O)Nc2sc3c(c2C(N)=O)CCCC3)c1`, the IC50 (WT cells) is > 25 µM (inactive) and the IC50 under setting [1] is above 25 µM.
As for `COC(=O)c1c(N)n(Cc2ccc(OC)cc2)c2nc3ccccc3nc12`, the IC50 (WT cells) is > 25 µM (inactive) and the concentration for half-maximal inhibition (IC50) under setting [1] is above 25 µM.
On to `COc1ccc(C2CC(=O)c3cnc(Nc4cc(C)cc(C)c4)nc3C2)cc1` (configuration not stated), for which the IC50 is > 25 µM (inactive) (WT cells) and above 25 µM under setting [1].
For `O=c1[nH]c(=O)n(Cc2ccco2)c2c1C(C(F)(F)F)(C(F)(F)F)N=C(Cc1ccccc1)N2`, the IC50 by setting is: (WT cells) > 25 µM (inactive); under setting [1], above 12.5 µM.
Take `O=C(c1ccc2c(c1)OCO2)N(Cc1ccco1)C1(C(=O)NC2CCCCC2)CCCCC1`: the IC50 by setting is: (WT cells) > 25 µM (inactive); under setting [1], above 25 µM.
As for `O=C(CCCCCN1C(=O)c2ccccc2C1=O)Nc1ccc(S(=O)(=O)N2CCCCC2)cc1`, the IC50 is, setting by setting: (WT cells) > 25 µM (inactive); under setting [1], above 12.5 µM.
Take `C/C(CCN1CCc2nc(-c3ccccc3)c(-c3ccccc3)cc2C1)=N\OC[C@@H](C)[C@H](OCc1ccccc1)C(C)C`: the IC50 is, setting by setting: (WT cells) > 25 µM (inactive); under setting [1], above 25 µM.
As to `CCc1cc(C(=O)Cc2ccc(F)cc2)c(O)cc1O`, the IC50 is > 25 µM (inactive) (WT cells) and above 25 µM under setting [1].
The corresponding values for `CC12CCC(c3c(C(=O)O)nn(-c4ccc(F)cc4)c31)C2(C)C` (configuration not stated) are > 25 µM (inactive) and above 25 µM.
Turning to `CCOc1ccccc1NC(=O)C(NCC1CCCCC1)c1ccccc1` (configuration not stated), the IC50 is 14.3 µM (WT cells) and above 25 µM under setting [1].
Turning to `CC1=CC(C)(C)N(S(=O)(=O)c2ccc(C)cc2)c2cc(C)ccc21`, the half-maximal inhibitory concentration (IC50) (WT cells) was 11.1 µM and the IC50 under setting [1] is above 25 µM.
In the case of `N#CCC(=O)N/N=C/c1cc(-c2ccccc2)n(-c2ccc(Cl)cc2)c1-c1ccccc1`, the half-maximal inhibitory concentration (IC50) is 4.18 µM (WT cells) and above 25 µM under setting [1].
Consider `C/C(=N\N=C(/N)SC1CC(=O)N(c2cccc(Cl)c2)C1=O)c1cccs1` (configuration not stated), for which the IC50 (WT cells) is > 25 µM (inactive) and the IC50 under setting [1] is above 25 µM.
On to `CC(C)c1ccccc1OCC(=O)NC1CCCc2ccccc21` (configuration not stated), for which the IC50 by setting is: (WT cells) 20.4 µM; under setting [1], above 25 µM.
Regarding `CCN(CC)C(=O)C1CC(=O)N(c2ccc(F)c(Cl)c2)C1` (configuration not stated), the IC50 (WT cells) was > 25 µM (inactive) and the half-maximal inhibitory concentration (IC50) under setting [1] is above 25 µM.
The corresponding values for `COc1cc(/C=N/n2cnnc2)ccc1OCc1ccccc1` are > 25 µM (inactive) and above 25 µM.
Turning to `COc1ccc(-c2nsc3c(N4CCCCC4C)ncnc23)cc1` (configuration not stated), the 50% inhibitory concentration (IC50) by setting is: (WT cells) 18.9 µM; under setting [1], above 25 µM.
On to `NC(=O)c1ccc(NC(=O)CCCN2C(=O)c3ccccc3C2=O)cc1`, for which the IC50 is > 25 µM (inactive) (WT cells) and above 25 µM under setting [1].
Consider `CCc1ccc2ncc(S(=O)(=O)c3ccc(C)c(C)c3)c(N3CCCC3)c2c1`, for which the 50% inhibitory concentration (IC50) reads like this: (WT cells) 14.6 µM; under setting [1], above 25 µM.
Take `O=C1/C(=C/c2cccc3ccccc23)CCCc2ccccc21`: the half-inhibitory concentration (IC50) is 17.3 µM (WT cells) and above 25 µM under setting [1].
For `Cc1ccc(C(C(=O)NCC2CCCO2)N(Cc2ccccc2)C(=O)c2ccc(-c3ccccc3)[nH]2)o1` (configuration not stated), the IC50 is 10.9 µM (WT cells) and above 25 µM under setting [1].
Taken in the same sequence, the figures for `Cc1cccc(-c2nnc(SCc3ccccc3)o2)c1` were > 25 µM (inactive) and above 25 µM.
On to `COc1cc(/C=N/NC(=O)CCc2ccccc2)ccc1O`, for which the IC50 is > 25 µM (inactive) (WT cells) and above 25 µM under setting [1].
For the molecule `O=C(c1ccc(-c2nnc(-c3ccccc3)o2)cc1)N1CCCCCC1`, the IC50 is > 25 µM (inactive) (WT cells) and above 25 µM under setting [1].
Regarding `CCc1cccc(CC)c1NC(=S)NCCc1c(C)[nH]c2ccc(C)cc12`, the half-inhibitory concentration (IC50) by setting is: (WT cells) 9.59 µM; under setting [1], above 25 µM.
Taken in the same sequence, the figures for `CCOCCCNC(=S)N1CCCN(c2nc3c(C)c(C)ccc3cc2C#N)CC1` were 11.8 µM and above 25 µM.
Turning to `CCOC(=O)c1sc(NC(=O)/C=C/c2cnn(CC)c2C)c(C(=O)OCC)c1C`, the IC50 (WT cells) is > 25 µM (inactive) and the concentration for half-maximal inhibition (IC50) under setting [1] was above 25 µM.
Regarding `CCOC(=O)C1=CN(c2cccc(F)c2)C=C(C(=O)OCC)C1c1cc(OC)c(O)c([N+](=O)[O-])c1`, the half-maximal inhibitory concentration (IC50) is 5.68 µM (WT cells) and above 25 µM under setting [1].
Turning to `Cc1ccc(SCC(=O)O/N=C(\N)c2cccc([N+](=O)[O-])c2)cc1`, the IC50 is > 25 µM (inactive) (WT cells) and above 25 µM under setting [1].
Taken in the same sequence, the figures for `COc1ccccc1N1CCN(CC(=O)Nc2ccc(Cl)c(C(F)(F)F)c2)CC1` were 20.2 µM and above 25 µM.
For `C/C(=N\Nc1nc(N2CCCCCC2)nc(N2CCCCCC2)n1)c1ccccc1`, the 50% inhibitory concentration (IC50) runs as follows: (WT cells) 12.6 µM; under setting [1], above 25 µM.
On to `CCOc1ccccc1NC(C)C(=O)Nc1cc(C(F)(F)F)ccc1N1CCOCC1` (configuration not stated), for which the IC50 is 19 µM (WT cells) and 22.2 µM under setting [1].
The corresponding values for `CCOc1ccccc1NC(=O)NC(=O)N(C)S(=O)(=O)c1ccc(C)cc1` are > 25 µM (inactive) and above 25 µM.
`COC(=O)C1C(=O)NCC1c1ccccc1` (configuration not stated): the IC50 is > 25 µM (inactive) (WT cells) and above 25 µM under setting [1].
In the case of `Cc1onc(-c2ccccc2Cl)c1C(=O)Nc1sc2c(c1C(N)=O)CCC(C)C2` (configuration not stated), the IC50 is 12.2 µM (WT cells) and above 25 µM under setting [1].
The corresponding values for `CC1CCCN(C(=O)CSc2nnc(-c3cccnc3)n2C2CCCCC2)C1` (configuration not stated) are > 25 µM (inactive) and above 25 µM.
For `c1csc(C(c2nnnn2C2CCCC2)N2CCCC3(CCCCC3)C2)c1` (configuration not stated), the IC50 reads like this: (WT cells) 4.94 µM; under setting [1], above 25 µM.
Consider `O=C(CSCC(=O)OCn1nnc2ccccc2c1=O)Nc1ccc(Cl)cc1`, for which the IC50 is, setting by setting: (WT cells) > 25 µM (inactive); under setting [1], above 25 µM.
With `CCOC(=O)c1c(C)[nH]c(C)c1C(=O)COC(=O)c1cc2ccccc2cc1O`, the concentration for half-maximal inhibition (IC50) is, setting by setting: (WT cells) 17.2 µM; under setting [1], above 25 µM.
For `COc1ccc2ccc3c(c2c1)N=C[C@]1(O3)N(C)c2ccccc2C1(C)C`, the IC50 reads like this: (WT cells) 8.07 µM; under setting [1], above 25 µM.
The corresponding values for `CCc1cc2c(=O)c(-c3cscn3)coc2cc1O` are > 25 µM (inactive) and above 25 µM.
Turning to `CC#C[C@]1(O)CC[C@H]2[C@@H]3CCC4=CC(=O)CCC4=C3[C@@H](c3ccc(N(C)C)cc3)C[C@@]21C`, the IC50 was 20.9 µM (WT cells) and above 25 µM under setting [1].
As for `Cc1ccccc1OCC(=O)Nc1ccccc1N1CCC(C)CC1`, the 50% inhibitory concentration (IC50) is, setting by setting: (WT cells) 16.1 µM; under setting [1], above 25 µM.
For the molecule `CCC(CC)C(=O)c1c[nH]c(C(=O)NCCCN2CCOCC2)c1`, the IC50 reads like this: (WT cells) > 25 µM (inactive); under setting [1], above 25 µM.
The corresponding values for `CCC(=O)Nc1ccc(Br)c(Cl)c1` are > 25 µM (inactive) and above 25 µM.
As to `Cc1ccc(CNCC(O)(c2ccccc2)c2ccc(F)cc2)cc1` (configuration not stated), the IC50 runs as follows: (WT cells) > 25 µM (inactive); under setting [1], above 25 µM.
For `Cc1ccc(S(=O)(=O)Nc2ccc(C(OC(=O)c3ccccc3[N+](=O)[O-])(C(F)(F)F)C(F)(F)F)cc2)cc1`, the IC50 (WT cells) was 11 µM and the half-maximal inhibitory concentration (IC50) under setting [1] was above 25 µM.

The values above are taken from PubChem BioAssay AID1361 (SRMLSC, 2008).
